Laboratory results: patent EP1094724B1, “USE OF A PHENOL OXIDISING ENZYME IN THE TREATMENT OF TOBACCO” (priority 1998, dated 2000)

Legend:
[1] = target: T1, Trametes villosa laccase (TvL) (Trametes villosa, UniProt Q99044); assay: Laccase TvL treatment of tobacco extract, HPLC analysis of phenolic compounds (peak area); type: biochemical; details: for % Remaining (peak area) after various treatment times: intensive, submerse aeration; for % Remaining (peak area) after 75 minutes / % Remaining (peak area) after 240 minutes: 1.6 µg/ml TvL, ambient temperature (approximately 20°C), surface aeration
T1 construct: purchased Novo Nordisk A/S
T1 sequence (Q99044 22-520): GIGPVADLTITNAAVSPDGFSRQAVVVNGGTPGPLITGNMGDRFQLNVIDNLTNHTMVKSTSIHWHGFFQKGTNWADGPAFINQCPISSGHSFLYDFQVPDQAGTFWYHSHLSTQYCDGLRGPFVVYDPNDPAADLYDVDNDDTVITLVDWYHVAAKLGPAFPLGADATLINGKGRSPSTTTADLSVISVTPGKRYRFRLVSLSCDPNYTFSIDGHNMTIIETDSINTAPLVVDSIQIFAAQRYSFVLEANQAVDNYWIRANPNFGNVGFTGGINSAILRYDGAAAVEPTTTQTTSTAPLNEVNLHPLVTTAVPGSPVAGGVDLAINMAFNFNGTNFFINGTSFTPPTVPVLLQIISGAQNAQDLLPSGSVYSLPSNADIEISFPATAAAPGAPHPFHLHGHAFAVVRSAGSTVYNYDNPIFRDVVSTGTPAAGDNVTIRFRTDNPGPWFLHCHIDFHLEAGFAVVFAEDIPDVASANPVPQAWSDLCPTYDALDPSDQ
Method: The content of phenolic compounds is analysed by HPLC according to the procedure described below: • Liquid chromatographic system: E.g. Shimadzu SCL-6B System Controller, and two LC-6A Liquid Chromatograph (pumps) or Waters model 600 E • Injector: Shimadzu SIL 6B Autoinjector or Waters 715 Ultra Wisp. UV detector: Shimadzu SPD-6A Photodiode Array UV-VIS detector or Waters Model 481 • Software: CLASS LC10 / CLASS-MXA or Maxima 820 • Column: Supelcosil™ LC-18 25 cm x 4.6 mm (Supelco, #5-8298) or µ Bondapack C198 stainless steel column, 30 cm x 4 mm i.d., 10 µm particle size. • Guard column: none or Guard-Pak from Waters packed with the same material. • Temperature: Ambient • Mobile phase flow: 1.3 ml/min • Injection volume: 20µl • Wavelength: 350 nm • Eluent: Binary gradient (linear) mixture of A: KH2PO4 (28.4 g in 2000 ml de-mineralised water) and B: methanol (please see table 1 and figure 1). The eluent is filtered through a 0.45 µm filter and degassed before use.
Prior to HPLC analysis, the samples were filtered through a 0.45 µm filter or smaller, e.g. a sterile Sartorius Minisart 0.45 µm filter (#16555) or a Millipore Millex-GS 0.22 µm (#SBGS 0 25 SB) to remove the haze/precipitate normally formed during enzyme treatment. Normally, no dilution of the extract/sample was made before HPLC analysis.
For qualitative and semi-quantitative measurements, each of the standards was dissolved in 96% ethanol, and then mixed in a ratio and at a concentration which was within the range in the tobacco extract. For semi-quantification of the phenolic compounds in the tobacco extract, and as a measure of development in concentration of the various compounds contained in the extract, decrease in peak area relative to the peak area before addition of enzyme was used. As a measure of overall efficiency of the process, degree of reduction in total peak area of all peaks (not only the major ones) in the HPLC chromatogram with retention time Rt>3 min was used (named: "All peaks").
Unless otherwise indicated, the tobacco was extracted at a laboratory scale with water according to the following procedure: 1000 ml demineralised water is heated to 45°C. 30 g tobacco (approx. 25 g d.m.) is added and the mixture stirred by a magnetic bar and occasionally with a stick. After 15 minutes the tobacco residue is separated from the tobacco extract by vacuum filtration (Whatman glass micro fibre GF/F 11 cm). The filtered extract is then vacuum filtered at least once more or until it is completely clear. Yield was around 900 ml tobacco extract. […] No buffer was thus included in any of the trials. D.m. content of the extract was approximately 2.1%.
Tobacco extract (typically 50-100 ml) was poured into a glass beaker and a magnetic bar was added. No pH adjustments were made, and no buffer was added. The tobacco extract was heated to and controlled at 55°C during the entire enzyme treatment by means of a heating plate and a thermostat. Intensive submerse aeration was applied by blowing atmospheric air into the extract by means of a metal sinter (metal suction filter normally used for HPLC). The enzyme in question (TvL or PpL) was added to the desired concentration. Shortly after addition of laccase, the colour of the tobacco extract turned dark brown to black, and with time the liquor became turbid and a precipitate formed. The liquor was sampled with intervals for HPLC analysis.
Enzyme treatment: Surface aeration was used. TvL enzyme was added to the tobacco extract to a concentration of approximately 1.6 µg/ml. […] HPLC chromatograms of the tobacco extract before, during, and after enzyme treatment as well as chromatograms of the mixture of HPLC standards are shown in figure 6, 7, ,8, and 9.
Enzyme treatment: pH of the extract was adjusted with H2SO4 or NaOH to pH 4, pH 5, pH 6, or pH 7. The extract was kept at ambient temperature (approximately 20°C) during the entire enzyme treatment. Surface aeration was used. […]

[2] = target: T2, laccase derived from Trametes villosa, TvL (Trametes villosa, UniProt Q99044); assay: Effect of laccase on tobacco constituents, UV/Vis spectra before and after treatment (Example 1); type: biochemical; details: 9 mM Na-acetate buffer pH 5.0; 4.8% Ethanol; 0.025 mg/ml of tobacco constituent; 0.016 mg/ml laccase; spectra 190-700 nm every 20 seconds for 5 minutes
T2 construct: purchased Novo Nordisk A/S
T2 sequence (Q99044 22-520): T1 sequence (Q99044 22-520)
Method: Tobacco constituents: Nicotine, Chlorogenic acid, Rutin and Scopoletin. Enzyme: Purified laccase derived from Trametes villosa, TvL. Apparatus: HP8452 UV/Vis diode array spectrophotometer, 1 cm quarts cuvette. Buffer: Sodium acetate (Merck)
10 mM acetate buffer was prepared from sodium acetate adjusted to pH 5.0 with sulphuric acid. Stock solution of 0.50 mg/ml in 96% ethanol was prepared of nicotine, chlorogenic acid, rutin, and scopoletin. A stock solution of 0.31 mg enzyme protein/ml of laccase in de-mineralised water was prepared. The HP diode array spectrophotometer was operated as per the manufacturer's instructions. A 1 cm quartz cuvette was used. As a blank was used 950µl buffer mixed with 50µl 96% ethanol. In a 1 cm quart cuvette was mixed 900µl 10 mM acetate buffer and 50µl of the stock solution of the compound in question. A spectrum of the "native" compound was recorded in the range 190-700 nm. 50µl of TvL stock solution was added and carefully mixed, and spectra in the range 190-700 nm were recorded every 20 seconds for 5 minutes.

Row | SMILES | % Remaining (peak area) after various treatment times ([1]; 40 Min, approximately 1.6 µg/ml TvL at 55°C and pH 5.4) | % Remaining (peak area) after various treatment times ([1]; 40 Min, approximately 7.8µg/ml TvL at 55°C and pH 5.4) | % Remaining (peak area) after various treatment times ([1]; 80 Min, approximately 1.6 µg/ml TvL at 55°C and pH 5.4) | % Remaining (peak area) after various treatment times ([1]; 120 Min, approximately 1.6 µg/ml TvL at 55°C and pH 5.4) | % Remaining (peak area) after 75 minutes ([1]; pH 4) | % Remaining (peak area) after 240 minutes ([1]; pH 4) | % Remaining (peak area) after 75 minutes ([1]; pH 5) | % Remaining (peak area) after 240 minutes ([1]; pH 5) | % Remaining (peak area) after 75 minutes ([1]; pH 6) | % Remaining (peak area) after 240 minutes ([1]; pH 6) | % Remaining (peak area) after 75 minutes ([1]; pH 7) | % Remaining (peak area) after 240 minutes ([1]; pH 7) | spectral changes (peak position and peak relative height) [2]
1 | C[C@@H]1O[C@@H](OC[C@H]2O[C@@H](Oc3c(-c4ccc(O)c(O)c4)oc4cc(O)cc(O)c4c3=O)[C@H](O)[C@@H](O)[C@@H]2O)[C@H](O)[C@H](O)[C@H]1O [R, rutin] | 20% | 0% | 0% | 0% | 44% | 0% | 29% | 0% | 14% | 0% | 87% | 63% | –
2 | CN1CCCC1c1cccnc1 (stereo not shown) [Nicotine] | – | – | – | – | – | – | – | – | – | – | – | – | No spectral changes
